Legend:
[1] = tested on: TRPV1 receptor-mediated pain; experiment: Capsaicin-induced eye wipe test; assay type: in vivo; conditions: rat; for eye wipe value: pre-administration value 24
Method: Each experiment uses rats weighing between 200-260 g at the start of the experiment. The rats are group-housed and have free access to food and water at all times, except prior to oral administration of a compound of formula I when food is removed for 16 hours before dosing. A control group acts as a comparison to rats treated with a compound of formula I. The control group is administered the carrier for the compound of formula I. The volume of carrier administered to the control group is the same as the volume of carrier and compound of formula I administered to the test group.
To assess the effect of compounds of formula I on TRPV1 receptor-mediated pain, the capsaicin-induced eye wipe test is used (N. R. Gavva et al., “AMG 9810 [(E)-3-(4-t-Butylphenyl)-N-(2,3-dihydrobenzo[b][1,4]dioxin-6-yl)acrylamide], a Novel Vanilloid Receptor 1 (TRPV1) Antagonist with Antihyperalgesic Properties”, J. Pharmacol. Exp. Ther. 313:474-484 (2005)). The eye wipe test is a reliable high-throughput test of the effect of TRPV1 antagonists. Rats are given a single injection of 1, 3, 10 or 30 mg/kg of either a compound of formula I; 30 mg/kg of a control selected from Celebrex, indomethacin or naproxen; or carrier. At 1, 3 or 5 hours after drug administration, 3 μL of a 100 μM capsaicin solution (in 10% EtOH/PBS) is instilled in one eye of each animal with a pipette. The number of forelimb movements (touching or wiping of the capsaicin-treated eye) are counted during a 2 minute period following instillation of capsaicin into the eye.

[2] = Plasma concentration after administration to an animal; assay type: in vivo

Row | maximum plasma concentration relative to the maximum for compound 200 [2] | Structure (SMILES) | eye wipe value ([1]; 1 hour after administration) | decrease of eye wipes relative to pre-administration value ([1]; 3 hours after administration) | eye wipe value ([1]; 3 hours after administration) | decrease of eye wipes relative to pre-administration value ([1]; 5 hours after administration) | eye wipe value ([1]; 5 hours after administration)
1 |  | O=C(Nc1ccc(C(F)(F)F)cc1)N1CCC(F)(c2ncc([C@H](O)CO)cc2Cl)CC1 [Compound N1, (S)-4-(3-chloro-5-(1,2-dihydroxyethyl)pyridin-2-yl)-4-fluoro-N-(4-(trifluoromethyl)phenyl)piperidine-1-carboxamide] | 3 | 96% | 1 | 92% | 2
2 | 5.3 times | CC(O)(CO)c1cnc(C2=CCN(C(=O)Nc3ccc(C(F)(F)F)cc3)CC2)c(Cl)c1 (stereo not shown) [Compound R6] |  |  |  |  | 
3 | 2.5 times | O=C(Nc1ccc(C(F)(F)F)cc1)N1CC=C(c2ncc([C@H](O)CO)cc2Cl)CC1 [Compound Z1, (S)-3-Chloro-5-(1,2-dihydroxy-ethyl)-3′,6′-dihydro-2′H-[2,4′]bipyridinyl-1′-carboxylic acid (4-trifluoromethyl-phenyl)amide] |  |  |  |  | 
